According to the supplement of paper PMC11061612:

Key:
Assay in all cases: Bliss excess, mean over the matrix (fraction); higher = more synergy
[1] = tested on: ALL-PO (B-Lymphoblastic Leukemia)
In short: (§1)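 Cell lines in DMEM/F12 or RPMI with 10% FBS were plated in 1536-well plates, held 24 hours at 37°C, 5% CO2, then given two-drug dose matrices for 72 hours (DMSO typically 0.2%). Viability was read by CellTiter-Glo 2.0 luminescence and scaled as inhibition from 0 (vehicle wells) to 1 (blank wells). Combination Emax is the second-highest inhibition in the matrix; Bliss excess is observed combination effect minus expected EA + EB − EA·EB, EA and EB being single-agent effects.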

[2] = tested on: BE-13 (T-Lymphoblastic Leukemia)
In short: as §1

BE2-M17 (Neuroblastoma) = tested on: BE2-M17 (Neuroblastoma)
In short: as §1

BPH-1 (Non-Cancerous) = tested on: BPH-1 (Non-Cancerous)
In short: as §1

CAL-72 (Osteosarcoma) = tested on: CAL-72 (Osteosarcoma)
In short: as §1

EW-11 (Ewing's Sarcoma) = tested on: EW-11 (Ewing's Sarcoma)
In short: as §1

GAMG (Glioblastoma) = tested on: GAMG (Glioblastoma)
In short: as §1

[3] = tested on: HH (T-Cell Non-Hodgkin's Lymphoma)
In short: as §1

[4] = tested on: HeLa (Cervical Carcinoma)
In short: as §1

[5] = tested on: HuCCT1 (Biliary Tract Carcinoma)
In short: as §1

[6] = tested on: HuH-7 (Hepatocellular Carcinoma)
In short: as §1

[7] = tested on: L-428 (Hodgkin's Lymphoma)
In short: as §1

[8] = tested on: LCLC-97TM1 (Non-Small Cell Lung Carcinoma)
In short: as §1

[9] = tested on: LS-123 (Colorectal Carcinoma)
In short: as §1

MPP-89 (Mesothelioma) = tested on: MPP-89 (Mesothelioma)
In short: as §1

NCI-H2052 (Mesothelioma) = tested on: NCI-H2052 (Mesothelioma)
In short: as §1

NCI-H2722 (Mesothelioma) = tested on: NCI-H2722 (Mesothelioma)
In short: as §1

[10] = tested on: NCI-H524 (Small Cell Lung Carcinoma)
In short: as §1

[11] = tested on: OV-56 (Ovarian Carcinoma)
In short: as §1

[12] = tested on: SNU-449 (Hepatocellular Carcinoma)
In short: as §1

SMILES | Bliss excess [1] | Bliss excess [2] | Bliss excess (BE2-M17 (Neuroblastoma)) | Bliss excess (BPH-1 (Non-Cancerous)) | Bliss excess (CAL-72 (Osteosarcoma)) | Bliss excess (EW-11 (Ewing's Sarcoma)) | Bliss excess (GAMG (Glioblastoma)) | Bliss excess [3] | Bliss excess [4] | Bliss excess [5] | Bliss excess [6] | Bliss excess [7] | Bliss excess [8] | Bliss excess [9] | Bliss excess (MPP-89 (Mesothelioma)) | Bliss excess (NCI-H2052 (Mesothelioma)) | Bliss excess (NCI-H2722 (Mesothelioma)) | Bliss excess [10] | Bliss excess [11] | Bliss excess [12]
NC1(C(=O)N[C@@H](CCO)c2ccc(Cl)cc2)CCN(c2ncnc3[nH]ccc23)CC1 [Capivasertib] + C[C@@H]1COCCN1C2=NC(=NC(=C2)C3(CC3)[S@](=N)(=O)C)C4=C5C=CNC5=NC=C4 [AZD6738] (first compound max 10 µM, 7x7, partner max 10 µM) | 0.0103 | -0.0877 | -0.0034 | -0.0497 | -0.0202 | -0.011 | -0.0558 | -0.0396 | -0.0926 | -0.0335 | -0.0228 | -0.0004 | -0.0607 | 0.0058 | -0.0166 | -0.0657 | -0.0119 | -0.0086 | -0.032 | -0.0057
NC1(C(=O)N[C@@H](CCO)c2ccc(Cl)cc2)CCN(c2ncnc3[nH]ccc23)CC1 [Capivasertib] + Cn1cnc2c(F)c(Nc3ccc(Br)cc3Cl)c(C(=O)NOCCO)cc21 [Selumetinib] (first compound max 10 µM, 7x7, partner max 10 µM) | 0.117 | 0.0265 | 0.0158 | -0.0162 | 0.0427 | 0.021 | 0.0408 | -0.0626 | 0.0032 | 0.01 | -0.0428 | -0.0127 | 0.0752 | 0.0583 | -0.0188 | -0.0031 | 0.0009 | 0.0158 | 0.01 | -0.0113
COc1cccc2c1C(=O)c1c(O)c3c(c(O)c1C2=O)C[C@@](O)(C(=O)CO)C[C@@H]3O[C@H]1C[C@H](N)[C@H](O)[C@H](C)O1 [Doxorubicin] + Cc1cc2ncnn2cc1Nc1ncc2c(n1)n(C1CCOCC1)c(=O)n2C [AZD7648] (first compound max 1 µM, 7x7, partner max 10 µM) | 0.143 | 0.0553 | 0.0514 | 0.0736 | -0.0164 | 0.0408 | 0.0479 | -0.0305 | 0.0511 | -0.0073 | -0.0513 | 0.0276 | 0.0332 | 0.035 | 0.0691 | 0.0122 | 0.0336 | 0.145 | 0.0345 | -0.0358
CS(=O)(=O)CCNCc1ccc(-c2ccc3ncnc(Nc4ccc(OCc5cccc(F)c5)c(Cl)c4)c3c2)o1 [Lapatinib] + C[C@@H](Oc1cc(-c2cnn(C3CCNCC3)c2)cnc1N)c1c(Cl)ccc(F)c1Cl [Crizotinib] (first compound max 10 µM, 7x7, partner max 10 µM) | 0.035 | -0.0235 | -0.0652 | -0.0078 | -0.0926 | -0.0233 | -0.0277 | -0.0405 | -0.0031 | -0.068 | 0.0309 | -0.0032 | -0.0093 | -0.0052 | -0.0762 | -0.0676 | -0.0713 | -0.037 | 0.0056 | -0.0453
CC(=O)c1c(C)c2cnc(Nc3ccc(N4CCNCC4)cn3)nc2n(C2CCCC2)c1=O [Palbociclib] + CC1(C)CCC(CN2CCN(c3ccc(C(=O)NS(=O)(=O)c4ccc(NCC5CCOCC5)c([N+](=O)[O-])c4)c(Oc4cnc5[nH]ccc5c4)c3)CC2)=C(c2ccc(Cl)cc2)C1 [Venetoclax] (first compound max 10 µM, 7x7, partner max 1 µM) | 0.169 | -0.0182 | 0.0218 | -0.0556 | -0.0439 | -0.0083 | -0.0097 | -0.0384 | -0.0473 | -0.0611 | -0.0402 | 0.0037 | -0.0231 | -0.0324 | -0.0484 | -0.0432 | -0.0485 | -0.0732 | -0.0448 | -0.0153
CC(=O)c1c(C)c2cnc(Nc3ccc(N4CCNCC4)cn3)nc2n(C2CCCC2)c1=O [Palbociclib] + Cc1c2c(nn1C)CSCc1cc(n(C)n1)CSc1cc(c3ccccc3c1)OCCCc1c(C(=O)O)n(C)c3c-2c(Cl)ccc13 [AZD5991] (first compound max 10 µM, 7x7, partner max 1 µM) | -0.0065 | -0.0277 | 0.0096 | -0.0476 | -0.0073 | 0.0284 | -0.0142 | -0.131 | -0.0225 | -0.0461 | -0.011 | -0.0554 | -0.0149 | -0.0376 | -0.021 | -0.0298 | -0.0649 | 0.0019 | -0.0824 | -0.0187
CC(=O)c1c(C)c2cnc(Nc3ccc(N4CCNCC4)cn3)nc2n(C2CCCC2)c1=O [Palbociclib] + Cn1cnc2c(F)c(Nc3ccc(Br)cc3Cl)c(C(=O)NOCCO)cc21 [Selumetinib] (first compound max 10 µM, 7x7, partner max 10 µM) | 0.0243 | -0.0003 | -0.0339 | -0.0755 | 0.0683 | -0.0298 | -0.0072 | -0.0471 | -0.0499 | 0.0282 | -0.0584 | -0.0083 | 0.0728 | 0.002 | -0.0394 | -0.0124 | -0.069 | -0.0403 | -0.0587 | -0.0006
COc1cccc(OCCCN)c1-c1cc(Nc2cnc(C#N)cn2)n[nH]1 [Prexasertib] + C=CCn1c(=O)c2cnc(Nc3ccc(N4CCN(C)CC4)cc3)nc2n1-c1cccc(C(C)(C)O)n1 [AZD1775] (first compound max 1 µM, partner max 1 µM) | 0.0744 | 0.0317 | 0.098 | 0.115 | 0.0055 | -0.0815 | 0.0606 | 0.0872 | 0.0651 | 0.0261 | 0.0469 | 0.0109 | 0.057 | -0.0296 | 0.0912 | 0.0221 | 0.0156 | 0.053 | -0.0015 | -0.0048
